Legend:
[1] = system: root-knot nematode (Meloidogyne incognita var. acrita); assay: Nematode Test; format: in vivo; parameters: key: 1: severe galling; equal to untreated control; 2: moderate galling; 3: light galling; 4: very light galling; 5: no galling; details: 10 ml of 500 parts per million formulation per jar of soil; cucumber indicator crop, approximately three weeks
Protocol: (§1) Suspensions of the test compounds were prepared by dissolving one gram of compound in 50 milliliters of acetone in which had been dissolved 0.1 gram (10 percent of the weight of compound) of an alkylphenoxy polyethoxyethanol surfactant, as an emulsifying or dispersing agent. The resulting solution was mixed into 150 milliliters of water to give roughly 200 milliliters of a suspension containing the compound in finely divided form. The thus-prepared stock suspension contained 0.5 percent by weight of compound. The test concentrations in parts per million by weight employed in the tests described hereinbelow were obtained by appropriate dilutions of the stock suspension with water. The test procedures were as follows:
Infective migratory larvae of the root-knot nematode, (Meloidogyne incognita var. acrita) were reared in the greenhouse on roots of Rutgers variety tomato plant. Infected tomato plants were removed from the culture and the roots were chopped very finely. A small amount of inoculum from the roots was added to pint Mason jars containing approximately 180 cc of soil. The jars containing the inoculum and soil were capped and incubated for one week at room temperature. During this period eggs of the nematode hatched and the larvae forms migrated into the soil.
The test compounds were formulated by diluting the stock suspension with water to give a suspension containing 500 parts of test compound per million parts of final formulation. 10 milliliters of the test formulation was added to each of two jars for each dosage treated. As a control 10 milliliters of a water-acetone-emulsifier solution containing no test compound was also added to jars containing nematode larvae. The jars were capped and the contents thoroughly mixed on a kale mill for five minutes. The jars remained capped at room temperature for a period of 48 hours and the contents were then transferred to 3 inch pots. Subsequently, the pots were seeded to cucumber as an indicator crop and placed in the green house where they were cared for in the normal fashion for growing potted cucumber for approximately three weeks. These cucumber plants were then removed from the pots, the soil washed from the roots and the amount of galling visually rated.

[2] = system: Mexican bean beetle (Epilachna varivestis, Muls.); assay: Mexican Bean Beetle Leaf Spray Test; format: in vivo; parameters: key: A: excellent control; B: partial control; C: no control; details: 500 parts per million leaf spray; fourth instar larvae; three days
Protocol: as §1
Fourth instar larvae of the Mexican bean beetle (Epilachna varivestis, Muls.), reared on Tendergreen bean plants at a temperature of 80°±5° F. and 50±5 percent relative humidity, were the test insects.
The test compounds were formulated by diluting the stock suspension with water to give a suspension containing 500 parts of test compound per million parts of final formulation. Potted Tendergreen bean plants of standard height and age were placed on a revolving turntable and sprayed with 100-110 milliliters of test compound formulation by use of a DeVilbiss spray gun set at 10 psig air pressure. This application, which lasted 25 seconds, was sufficient to wet plants to run-off. As a control, 100-110 milliliters of a water-acetone-emulsifier solution containing no test compound were also sprayed on infested plants. When dry, the paired leaves were separated and each was placed in a 9 centimeter Petri dish lined with moistened filter paper. Five randomly selected larvae were introduced into each dish, and the dishes were closed. The closed dishes were labeled and held at a temperature of 80°±5° F. for three days. Although the larvae could easily consume the leaf within 24 to 48 hours, no more food was added. Larvae which were unable to move the length of the body, even upon stimulation, were considered dead.

SMILES	Nematodes, nematocidal toxicity rating (galling) [1]	M. Bean Beetle, pesticidal activity rating [2]
CN(SSC(C)(C)C)C(=O)ON=C1SC(C)(C)C(=O)N1C	1	A
CN(SSC(C)(C)C)C(=O)ON=C1SCCS1	5	A

Reference: patent US4232035A, “Carbamate pesticidal compounds compositions and methods of use” (priority 1975, dated 1980)
